Data on 53 compounds can be found in the Kinase Knowledgebase extract (Sharma et al. 2016).

This assay deals with EGFR (UniProt P00533).

Molecules are shown by their SMILES. pIC50: −log10 of the molar value.

EGFR, sequence (P00533 whole entry, looked up): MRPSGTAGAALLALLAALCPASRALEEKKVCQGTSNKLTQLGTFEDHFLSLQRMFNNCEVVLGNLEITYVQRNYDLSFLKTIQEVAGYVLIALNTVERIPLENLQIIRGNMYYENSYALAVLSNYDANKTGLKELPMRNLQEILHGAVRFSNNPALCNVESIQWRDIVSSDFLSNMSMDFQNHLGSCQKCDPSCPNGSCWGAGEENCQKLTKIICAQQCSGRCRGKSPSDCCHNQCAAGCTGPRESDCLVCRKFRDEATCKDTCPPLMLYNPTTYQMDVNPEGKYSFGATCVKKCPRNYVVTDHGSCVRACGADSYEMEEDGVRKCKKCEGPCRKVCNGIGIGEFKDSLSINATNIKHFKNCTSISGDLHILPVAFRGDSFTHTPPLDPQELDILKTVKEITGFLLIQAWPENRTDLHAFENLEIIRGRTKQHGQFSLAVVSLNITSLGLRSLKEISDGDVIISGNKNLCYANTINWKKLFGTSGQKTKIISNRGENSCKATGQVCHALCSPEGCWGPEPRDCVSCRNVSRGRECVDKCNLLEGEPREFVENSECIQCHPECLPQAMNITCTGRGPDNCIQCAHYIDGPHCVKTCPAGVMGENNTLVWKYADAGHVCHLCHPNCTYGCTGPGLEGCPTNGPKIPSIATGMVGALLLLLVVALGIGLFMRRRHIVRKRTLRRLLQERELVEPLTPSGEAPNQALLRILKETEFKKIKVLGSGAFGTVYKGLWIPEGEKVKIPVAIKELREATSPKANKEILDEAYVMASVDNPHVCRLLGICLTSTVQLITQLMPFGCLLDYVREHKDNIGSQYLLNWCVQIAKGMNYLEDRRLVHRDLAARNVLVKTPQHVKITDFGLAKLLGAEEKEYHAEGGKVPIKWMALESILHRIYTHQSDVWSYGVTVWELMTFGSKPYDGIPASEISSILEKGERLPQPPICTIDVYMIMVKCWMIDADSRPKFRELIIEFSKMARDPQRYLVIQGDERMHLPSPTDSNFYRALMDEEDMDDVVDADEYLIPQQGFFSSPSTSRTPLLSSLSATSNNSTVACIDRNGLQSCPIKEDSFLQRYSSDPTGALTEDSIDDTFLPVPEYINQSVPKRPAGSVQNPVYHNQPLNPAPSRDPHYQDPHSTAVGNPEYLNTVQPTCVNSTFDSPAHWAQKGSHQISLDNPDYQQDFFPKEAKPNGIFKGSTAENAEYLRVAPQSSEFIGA

With `CCN1CCC(Nc2ccc3c(c2)/C(=C(/c2nc(C)c[nH]2)c2cc(F)c(Cl)cc2Cl)C(=O)N3)CC1`, the pIC50 – broadly, the IC50 on a negative log10 scale, so that one unit is a factor of ten – was 6.30 to 7.30.
Turning to `CCN1CCC(Nc2ccc3c(c2)/C(=C(\c2cccc(Cl)c2)c2nc4ccccc4[nH]2)C(=O)N3)CC1`, the pIC50 is 6.30 to 7.30.
As for `COCCN1CCC(Nc2ccc3c(c2)/C(=C(\c2ccc(Cl)cc2)c2ncc[nH]2)C(=O)N3)CC1`, the figure is less than 5.30.
As for `COCCN1CCC(Nc2ccc3c(c2)/C(=C(\c2ccc(F)cc2)c2nc4ccccc4[nH]2)C(=O)N3)CC1`, the figure is 5.30 to 6.30; as for `CCN1CCC(Nc2ccc3c(c2)/C(=C(/c2cc(F)cc(F)c2)c2nc4cc(F)ccc4[nH]2)C(=O)N3)CC1`, less than 5.30; as for `COCCN1CCC(Nc2ccc3c(c2)/C(=C(\c2cc(F)cc(F)c2)c2ncc[nH]2)C(=O)N3)CC1`, 6.30 to 7.30.
As for `CCN1CCC(Nc2ccc3c(c2)/C(=C(\c2cccc(OC)c2)c2nc4ccccc4[nH]2)C(=O)N3)CC1`, the figure is 6.30 to 7.30; as for `CCN1CCC(Nc2ccc3c(c2)/C(=C(\c2cccc(C(=N)N)c2)c2nc4ccccc4[nH]2)C(=O)N3)CC1`, 5.30 to 6.30; as for `COCCN1CCC(Nc2ccc3c(c2)/C(=C(\c2cccc(F)c2)c2nc(C)c[nH]2)C(=O)N3)CC1`, 6.30 to 7.30.
For `CCN1CCC(Nc2ccc3c(c2)/C(=C(/c2nc(C)c[nH]2)c2ccc(F)cc2F)C(=O)N3)CC1`, the negative-log IC50 (pIC50) is 6.30 to 7.30.
Then `CCN1CCC(Oc2ccc3c(c2)/C(=C(\c2cccc(Cl)c2)c2ncc[nH]2)C(=O)N3)CC1`, with 5.30 to 6.30; and `COCCN1CCC(Nc2ccc3c(c2)/C(=C(\c2ccc(C)cc2)c2ncc[nH]2)C(=O)N3)CC1`, with 6.30 to 7.30.
For the compound `COCCN1CCC(Nc2ccc3c(c2)/C(=C(\c2ccc(C)c(F)c2)c2ncc[nH]2)C(=O)N3)CC1`, the pIC50 is 6.30 to 7.30.
As for `O=C1Nc2ccc(NC3CC4CCC(C3)N4)cc2/C1=C(\c1ccccc1)c1nc2ccccc2[nH]1` (stereo not drawn), the figure is 5.30 to 6.30; as for `CCN1CCC(Nc2ccc3c(c2)/C(=C(\c2ccc(C)cc2)c2nc4cc(OC)ccc4[nH]2)C(=O)N3)CC1`, 5.30 to 6.30.
In the case of `CCN(CC)CCN1CCC(Nc2ccc3c(c2)/C(=C(\c2cccc(F)c2)c2ncc[nH]2)C(=O)N3)CC1`, the pIC50 is less than 5.30.
Then `COc1ccc2[nH]c(/C(=C3\C(=O)Nc4ccc(NC5CC(C)(C)NC(C)(C)C5)cc43)c3ccccc3)nc2c1`, with 5.30 to 6.30; and `CCN1CCC(Nc2ccc3c(c2)/C(=C(\c2cc(F)cc(F)c2)c2nc(C)c[nH]2)C(=O)N3)CC1`, with 6.30 to 7.30; and `CCOC(=O)c1[nH]c(/C(=C2\C(=O)Nc3ccc(NC4CCN(CCOC)CC4)cc32)c2cccc(F)c2)nc1C`, with less than 5.30.
In the case of `COCCN1CCC(Nc2ccc3c(c2)/C(=C(\c2ccc(OC)cc2)c2ncc[nH]2)C(=O)N3)CC1`, the pIC50 was less than 5.30.
Consider `CCN1CCC(Nc2ccc3c(c2)/C(=C(\c2ccc(OC)cc2)c2ncc[nH]2)C(=O)N3)CC1`, for which the negative-log IC50 (pIC50) is 5.30 to 6.30.
As for `CCN1CCC(Nc2ccc3c(c2)/C(=C(\c2cccc(Cl)c2)c2ncc[nH]2)C(=O)N3)CC1`, the figure is 6.30 to 7.30.
Then `COCCN1CCC(Nc2ccc3c(c2)/C(=C(\c2ccc(C(F)(F)F)nc2)c2ncc[nH]2)C(=O)N3)CC1`, with less than 5.30; and `CCN1CCC(Nc2ccc3c(c2)/C(=C(\c2ccc(C)cc2)c2nc(C)c[nH]2)C(=O)N3)CC1`, with 6.30 to 7.30.
As for `O=C1Nc2ccc(NC3CCNCC3)cc2/C1=C(\c1cccc(F)c1)c1ncc[nH]1`, the figure is less than 5.30; as for `CCN1CCC(Nc2ccc3c(c2)/C(=C(\c2cc(F)cc(F)c2)c2nc4cc(F)ccc4[nH]2)C(=O)N3)CC1`, 6.30 to 7.30.
`CCN1CCC(Nc2ccc3c(c2)/C(=C(\c2cc(F)cc(F)c2)c2ncc[nH]2)C(=O)N3)CC1`: the pIC50 was 6.30 to 7.30.
As for `COCCN1CCC(Nc2ccc3c(c2)/C(=C(\c2cccc(F)c2)c2ncc[nH]2)C(=O)N3)CC1`, the figure is 6.30 to 7.30.
As for `COCCN1CCC(Nc2ccc3c(c2)/C(=C(\c2cccc(F)c2)c2nc4ccccc4[nH]2)C(=O)N3)CC1`, the figure is 6.30 to 7.30.
As for `COCCN1CCC(Nc2ccc3c(c2)/C(=C(\c2cccc(F)c2)c2ncn[nH]2)C(=O)N3)CC1`, the figure is less than 5.30; as for `COCCN1CCC(Nc2ccc3c(c2)/C(=C(\c2ccc(F)c(Cl)c2)c2ncc[nH]2)C(=O)N3)CC1`, less than 5.30; as for `CCN1CCC(Nc2ccc3c(c2)/C(=C(\c2ccc(F)cc2)c2ncc[nH]2)C(=O)N3)CC1`, 5.30 to 6.30.
For the compound `COCCN1CCC(Nc2ccc3c(c2)/C(=C(\c2ccc(F)cc2)c2ncc[nH]2)C(=O)N3)CC1`, the negative-log IC50 (pIC50) was less than 5.30.
In the case of `CCN1CCC(Nc2ccc3c(c2)/C(=C(\c2ccc(C(F)(F)F)nc2)c2ncc[nH]2)C(=O)N3)CC1`, the pIC50 is less than 5.30.
Regarding `CN(C)CCN1CCC(Nc2ccc3c(c2)/C(=C(\c2ccccc2)c2nc4ccccc4[nH]2)C(=O)N3)CC1`, the pIC50 was 5.30 to 6.30.
Regarding `CCN1CCC(Nc2ccc3c(c2)/C(=C(\c2ccc(C)cc2)c2ncc[nH]2)C(=O)N3)CC1`, the pIC50 was 6.30 to 7.30.
Consider `O=C1Nc2ccc(NC3CCNCC3)cc2/C1=C(\c1ccccc1)c1nc2ccccc2[nH]1`, for which the pIC50 is 5.30 to 6.30.
As for `CCN1CCC(Nc2ccc3c(c2)/C(=C(\c2ccc(Cl)cc2)c2nc4ccccc4[nH]2)C(=O)N3)CC1`, the figure is 6.30 to 7.30.
`CCN1CCC(N(C)c2ccc3c(c2)/C(=C(\c2cccc(Cl)c2)c2nc4ccccc4[nH]2)C(=O)N3)CC1` showed a negative logarithm of the IC50 (pIC50) of 5.30 to 6.30.
Regarding `CCN1CCC(Nc2ccc3c(c2)/C(=C(\c2cccc([N+](=O)[O-])c2)c2nc4ccccc4[nH]2)C(=O)N3)CC1`, the pIC50 was 5.30 to 6.30.
Then `CCN1CCC(Nc2ccc3c(c2)/C(=C(\c2ccc([N+](=O)[O-])cc2)c2nc4ccccc4[nH]2)C(=O)N3)CC1`, with 5.30 to 6.30; and `CCN1CCC(Oc2ccc3c(c2)/C(=C(\c2cccc(OC)c2)c2nc4ccccc4[nH]2)C(=O)N3)CC1`, with 5.30 to 6.30; and `COCCN1CCC(Oc2ccc3c(c2)/C(=C(\c2cccc(Cl)c2)c2nc4ccccc4[nH]2)C(=O)N3)CC1`, with 6.30 to 7.30.
The compound `COCCN1CCC(Nc2ccc3c(c2)/C(=C(\c2cccc(F)c2)c2nc(-c4ccccc4)c[nH]2)C(=O)N3)CC1` had a negative-log IC50 (pIC50) of 6.30 to 7.30.
`Cc1ccc(/C(=C2/C(=O)Nc3ccc(NC4CCN(C)CC4)cc32)c2ncc[nH]2)cc1` gave a pIC50 of 6.30 to 7.30.
`CCCc1ccc(/C(=C2/C(=O)Nc3ccc(NC4CCN(CC)CC4)cc32)c2ncc[nH]2)cc1` gave a pIC50 of 6.30 to 7.30.
Then `O=C1Nc2ccc(NC3CCN(CCN4CCCC4)CC3)cc2/C1=C(\c1cccc(F)c1)c1ncc[nH]1`, with less than 5.30; and `CCN1CCC(Nc2ccc3c(c2)/C(=C(/c2ncc[nH]2)c2ccc(C(F)(F)F)cc2F)C(=O)N3)CC1`, with 6.30 to 7.30; and `COCCN1CCC(Nc2ccc3c(c2)/C(=C(\c2cccc(Cl)c2)c2ncc[nH]2)C(=O)N3)CC1`, with 5.30 to 6.30.
As for `CCN1CCC(Oc2ccc3c(c2)/C(=C(\c2cc(F)cc(F)c2)c2nc4ccccc4[nH]2)C(=O)N3)CC1`, the figure is 5.30 to 6.30.
Then `CCCc1ccc(/C(=C2/C(=O)Nc3ccc(NC4CCN(CCOC)CC4)cc32)c2ncc[nH]2)cc1`, with 6.30 to 7.30.
In the case of `CCN1CCC(Nc2ccc3c(c2)/C(=C(\c2ccc(F)c(F)c2)c2ncc[nH]2)C(=O)N3)CC1`, the pIC50 was 5.30 to 6.30.
As to `CCN1CCC(Nc2ccc3c(c2)/C(=C(/c2nc(C)c[nH]2)c2ccc(Cl)cc2F)C(=O)N3)CC1`, the negative logarithm of the IC50 (pIC50) is more than 7.30.
